One molecule from patent publication US20230278972A1, “SUBSTITUTED HALOALKYL SULFONANILIDE HERBICIDES” (FMC Corporation, priority 2020, published 2023) can be followed below.

Holding throughout (type): in vivo
Test [1] deals with galium (catchweed bedstraw, Galium aparine). In words: Test A1 postemergence, galium. Particulars: Postemergence. A digest of the protocol:
(§1)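 Plants grown in pots of loam/sand mix; preemergence = soil-directed spray on seeded pots, postemergence = spray at 1–2 leaves, height 2–10 cm; test chemicals formulated in non-phytotoxic solvent with surfactant.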

The next test concerns kochia (Bassia scoparia). The experiment in a line: Test A1 preemergence, kochia. A digest of the protocol:
(§2)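 Herbicidal response was scored on plants treated either preemergence, by directed spray onto soil of a loam–sand blend after sowing, or postemergence on potted plants at the one- to two-leaf stage, 2–10 cm high. Test chemicals were carried in a non-phytotoxic solvent mix with surfactant.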

The test system of test [2] is ducksalad (Heteranthera limosa). In words: Test B1 flooded paddy test, ducksalad. Particulars: 250 g ai/ha, Flood, applied to paddy water, 2-leaf stage, visually evaluated after 10 to 14 days. The text has this: A dash (-) response means no test result.
Test [3] has as its system blackgrass (Alopecurus myosuroides). In words: Test A1 preemergence, blackgrass. A digest of the protocol:
as §2

In test [4] the test system is Oat, Wild (wild oat, Avena fatua). In words: Test A1 postemergence, Oat, Wild. Particulars: Postemergence. A digest of the protocol: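 Pre: seeds in loam/sand blend, directed soil spray. Post: potted plants, same soil, 2–10 cm, 1–2 leaf stage. Chemicals in non-phytotoxic solvent + surfactant for both.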
Test [5] has as its system Ryegrass, Italian (Italian ryegrass, Lolium multiflorum). In words: Test A1 postemergence, Ryegrass, Italian. Particulars: Postemergence. In outline:
as §1

Where [6] appears, read: 31 g ai/ha, 0 to 100 scale (0 no effect, 100 complete control), 10 days.
The mark [7] stands for this setting: 31 g ai/ha, 0 to 100 scale (0 no effect, 100 complete control).
The mark [8] stands for this setting: 125 g ai/ha, 0 to 100 scale, 0 no effect, 100 complete control.

With `CCOC(=O)N(c1cc(C(=O)N2CCC(c3ccccc3)CC2)c(C)cc1C)S(=O)(=O)C(F)(F)F` [Compound 365], the “Plant response rating, Galium” value in test [1] (setting [6]) came out at 40; in test [1] (125 g ai/ha, 0 to 100 scale), 80. Moreover, the “Plant response rating, Kochia” value in the test on kochia (Bassia scoparia) (setting [7]) and in the test on kochia (Bassia scoparia) (setting [8]) was 0 throughout. In test [2], the “Plant response rating, Ducksalad (0 to 100 scale, 0 is no effect, 100 is complete control)” value is given as 25. The “Plant response rating, Blackgrass” value in test [3] (setting [7]) and in test [3] (setting [8]) was 0 throughout. Besides, the “Plant response rating, Oat, Wild” value stood at 0 in test [4] (setting [6]) and 0 in test [4] (125 g ai/ha, 0 to 100 scale). For the same molecule, the “Plant response rating, Ryegrass, Italian” value in test [5] (setting [6]) worked out at 0; in test [5] (125 g ai/ha, 0 to 100 scale), 10.
